Results from patent US20260216175A1, “COMPLEMENT INHIBITION” (Apellis Pharmaceuticals, Inc., priority 2023, published 2026).

test system: complement activation; experiment: not given; conditions: fold activity relative to compstatin amidated at the C-terminus; based on published data and assays (WO2004/026328, WO2007044668, Mallik 2005; Katragadda 2006); cited from earlier work

Compound	Activity over compstatin [× more]
Ac-ICV(1-Nal)QDWGAHRCT-COOH [Ac V4(1-Nal)/H9A —OH]	30
Ac-ICV(2-IgI)QDWGAHRCT-CONH2 [Ac-V42IgI/H9A]	39
Ac-ICV(2-IgI)QDWGAHRCT-COOH [Ac-V42IgI/H9A —OH]	37
Ac-ICV(2-Nal)QDWGAHRCT-CONH2 [Ac-V4(2-Nal)/H9A]	99
Ac-ICV(2-Nal)QDWGAHRCT-COOH [Ac V4(2-Nal)/H9A —OH]	38
Ac-ICV(Bpa)QDWGAHRCT-CONH2 [Ac-V4(Bpa)/H9A]	86
Ac-ICV(Bpa)QDWGAHRCT-COOH [Ac-V4(Bpa)/H9A —OH]	49
Ac-ICVDhtQDWGAHRCT-COOH [Ac-V4Dht/H9A —OH]	5
Ac-ICVVQDWGHHRCT-CONH2 [Ac-compstatin]	3
Ac-ICVWQD(5fW)GAHRCT-CONH2 [Ac-V4W/W7(5fW)/H9A]	121
Ac-ICVWQDWGAHRCT-CONH2 (Ac-ICVWQDWGAHRCT-NH2; cysteine pairing not given here) [Ac-V4W/H9A, compstatin analog]	45
Ac-ICVWQDWGAHRCdT-COOH [Ac-V4W/H9A/T13dT —OH]	55
Ac-ICVYQDWGAHRCT-CONH2 [Ac-V4Y/H9A]	14
H-GICV(6fW)QD(6fW)GAHRCTN-COOH [+G/V4(6fW)/W7(6fW)H9A + N—OH]	126

test system: not listed separately; experiment: biological activity of enantiomers (assay not specified); conditions: first eluting vs second eluting enantiomer

Compound	biological activity, comparison of enantiomers
COc1cc(C)c2[nH]ccc2c1CN1CCN(CC(F)F)CC1c1ccc(C(=O)O)c(O)c1 (single isomer, unassigned) [Example 68, 4-(4-(2,2-difluoroethyl)-1-((5-methoxy-7-methyl-1H-indol-4-yl)methyl)piperazin-2-yl)-2-hydroxybenzoic acid]	more active enantiomer
